Results from US6469196B2, “Dialkyl phenyl halide-substituted keto-enols for use as herbicides and pesticides” (Bayer Aktiengesellschaft, priority 1995, dated 2002).

Legend:
Format in all cases: in vivo
[1] = system: caterpillars of the diamond-back moth (Plutella xylostella); test: Plutella test; details: active compound concentration 0.1%; after 7 days; dipped cabbage leaves (Brassica oleracea)
Experimental: (§1) Plutella Test Solvent: 7 parts by weight of dimethylformamide Emulsifier: 1 part by weight of alkylaryl polyglycol ether To produce a suitable preparation of active compound, 1 part by weight of active compound is mixed with the stated amount of solvent and the stated amount of emulsifier, and the concentrate is diluted with water to the desired concentration. Cabbage leaves (Brassica oleracea) are treated by being dipped into the preparation of the active compound of the desired concentration and are infested with caterpillars of the diamond-back moth (Plutella xylostella) while the leaves are still moist. After the specified period of time, the destruction in % is determined. 100% means that all the caterpillars have been killed; 0% means that none of the caterpillars have been killed.

[2] = system: mustard beetle larvae (Phaedon cochleariae); test: Phaedon larvae test; details: active compound concentration 0.1%; after 7 days; dipped cabbage leaves (Brassica oleracea)
Experimental: as §1, with “Phaedon larvae” for “Plutella”, “mustard beetle larvae (Phaedon cochleariae),” for “caterpillars of the diamond-back moth (Plutella xylostella)”, “After the specified period of time, the destruction in % is determined.” left out, “beetle larvae” for “caterpillars”

[3] = system: green rice leafhopper (Nephotettix cincticeps); test: Nephotettix test; details: active compound concentration 0.1%; after 6 days; dipped rice seedlings (Oryza sativa)
Experimental: as §1, with “Nephotettix” for “Plutella”, “Rice seedlings (Oryza sativa)” for “Cabbage leaves (Brassica oleracea)”, “with” for “with caterpillars of”, “green rice leafhopper (Nephotettix cincticeps)” for “diamond-back moth (Plutella xylostella)”, “leafhoppers” for “caterpillars”

[4] = system: common spider mite or two-spotted spider mite (Tetranychus urticae); test: Tetranychus test (OP-resistant/dipping treatment); details: active compound concentration 0.1%; after 13 days; dipped infested bean plants (Phaseolus vulgaris)
Experimental: Tetranychus Test (OP-resistant/dipping Treatment)
Solvent: 7 parts by weight of dimethylformamide
Emulsifier: 1 part by weight of alkylaryl polyglycol ether
To produce a suitable preparation of active compound, 1 part by weight of active compound is mixed with the stated amount of solvent and the stated amount of emulsifier, and the concentrate is diluted with water to the desired concentration.
Bean plants (Phaseolus vulgaris) which have been heavily infested with the common spider mite or two-spotted spider mite (Tetranychus urticae) in all stages of development are treated by being dipped into the preparation of the active compound of the desired concentration.
After the specified period of time, the destruction in % is determined. 100% means that all the spider mites have been killed; 0% means that none of the spider mites have been killed.

[5] = system: peach aphid (Myzus persicae); test: Myzus test; details: active compound concentration 0.1%; after 6 days; dipped infested cabbage leaves (Brassica oleracea)
Experimental: as §1, with “Myzus” for “Plutella”, “oleracea) which have been heavily infested with the peach aphid (Myzus persicae)” for “oleracea)”, “concentration.” for “concentration and are infested with caterpillars of the diamond-back moth (Plutella xylostella) while the leaves are still moist.”, “aphids” for “caterpillars”

Cc1cc(C)c(C2=C(OC(=O)C(C)(C)C)C3(CCCCC3)OC2=O)c(Br)c1 [Example I-2-b-1]
100%: destruction in % [1] | destruction in % [2] | destruction in % [3]

Cc1cc(Br)cc(C)c1C1=C(O)C2(CCCC(C)C2)NC1=O (stereo not drawn) [Example I-1-a-1]
100%: destruction in % [2] | destruction in % [3]

Cc1cc(C)c(C2=C(O)C3(CCCCC3)OC2=O)c(Br)c1 [Example I-2-a-1]
100%: destruction in % [2] | action (destruction in %) [4] | destruction in % [5] | destruction in % [3]
